Data reported in patent EP2241565A1, “Aurora kinase inhibitors compounds” (Universität Leipzig, priority 2009, dated 2010).
Entries after “also recorded” stand apart in the source; their conditions may differ.

Key:
[1] = tested on: H2B-GFP/mRFP-αTubulin HeLa cells; experiment: Time-lapse video microscopy of live cells; assay type: cell-based, human; conditions: 40 µM
Procedure: Upon treatment, living cells were added to a humidified chamber at 37 °C with 5% CO2 attached to a Carl Zeiss microscope (SN:3834000366) equipped with a Hamamatsu EM-CCD digital camera, controlled by AxioVision 4.6 software. Cells were imaged every 3 or 4.5 min (depending on the number of fields filmed) for over 16 h-24 h. Images were taken with the AxioCam MRm 426205 objective and processed using AxioVision software.
The increase in the proportion of cells with more than 2n DNA content could be due to several causes: several cycles of DNA replication or cytokinesis errors as shown for cells treated with other Aurora inhibitors. To determine the primary cause for the phenotype produced by (C) and examine whether (A) may interfere with mitosis, we examined live cells by time-lapse video microscopy. To visualize DNA and microtubules we used a HeLa stable cell line expressing H2B-GFP and mRFP-αTubulin. […] The resulting time-lapse images were used to determine the following parameters: (1) the percentage of cell death among non dividing cells (Figure 4A), (2) the percentage of cells entering mitosis (Figure 4B), (3) the outcome of mitosis: normal division (cell division), return to interphase without chromatin segregation and without dividing (no division), cytokinesis failure (division errors), cell death without resolving mitosis (cell death) (Figure 4C), and (4) the length of time spent in mitosis (TIM), defined as the interval between DNA condensation and anaphase resolution (Figure 4D).

Aurora A = target: T1, Aurora A (Homo sapiens, UniProt O14965); experiment: In vitro Aurora A kinase assay (Invitrogen Z'-lyte kinase assay kit, Ser/Thr 1 peptide); assay type: biochemical; conditions: for IC50: 10 µM ATP; for selectivity for Aurora A against other kinases: versus Aurora B and receptor-tyrosine kinases
T1 construct: made in house
T1 sequence (O14965 1-403): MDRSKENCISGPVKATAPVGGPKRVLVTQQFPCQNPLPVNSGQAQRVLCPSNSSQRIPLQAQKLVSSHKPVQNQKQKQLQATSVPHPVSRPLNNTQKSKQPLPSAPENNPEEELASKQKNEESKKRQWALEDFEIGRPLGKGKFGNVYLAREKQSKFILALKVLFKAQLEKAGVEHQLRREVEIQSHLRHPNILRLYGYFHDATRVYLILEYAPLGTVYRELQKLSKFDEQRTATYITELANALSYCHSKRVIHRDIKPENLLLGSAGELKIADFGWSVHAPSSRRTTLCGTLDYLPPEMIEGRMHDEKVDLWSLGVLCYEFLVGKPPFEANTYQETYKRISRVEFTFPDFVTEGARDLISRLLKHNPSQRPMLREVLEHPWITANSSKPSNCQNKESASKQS
Procedure: The IC50 for the different compounds was determined with Invitrogen Z'-Iyte kinase assay kit Ser/Thr 1 peptide PV3174 following the manufacturer's instructions. […] This amount was then used in subsequent assay steps.
Compounds were prepared in 384-well plates (Greiner 384-well PP 781280) at a highest concentration of 400 µM (in 4% DMSO) and then serially diluted in 2-fold steps by hand, keeping the DMSO percentage constant. 1.25 µl of compound solution was subsequently transferred 1:1 to a 384-well assay plate (Greiner 384-well ProxiPlate Plus F 6008260) for screening at a highest concentration in the final assay of 100 µM (in 1% DMSO).
In the first step, 2.5 µl of a solution containing 8 nM Aurora A (batch S74, prepared in-house at EMBL) or 40 nM Aurora B (Invitrogen PV3970) and 4 µM Ser/Thr peptide 1 (Invitrogen PV3174) was added to each well, followed by 1.25 µl of the respective ATP solution (40 µM for Aurora A, 256 µM for Aurora B). The final 5 µl reaction volume consisted of 4 nM Aurora A or 20 nM Aurora B, 2 µM Ser/Thr 1 peptide, 50 mM HEPES pH 7.5, 0.01 % BRIJ-35, 10 mM MgCl2, and 1 mM EGTA, in addition to 10 µM or 64 µM ATP (for Aurora A and Aurora B, respectively). […] The plates were then spun down at 1000 rpm for 1 min, followed by incubation at rt for 1 h. In the second step, 2.5 µl of Development solution (Development A reagent diluted 1:2048 in development buffer) was added to each well, followed again by centrifugation at 1000 rpm for 1 min and subsequent incubation at rt for 1 h. In the final step, the reaction in each well was stopped by the addition of 2.5 µl Stop reagent, followed by a brief centrifugation step and immediate readout (PerkinElmer EnVision HTS; ex. 405 nm, coumarin em. 450 nm, fluorescein em. 535 nm).
Percentage phosphorylation was calculated using 0% and 100% phosphorylation controls. The former wells contained 1.25 µl DMSO (4%), 1.25 µl buffer (as above), and 2.5 µl of a 4 µM Ser/Thr 1 peptide solution (without kinase), while in the latter the peptide solution was replaced by a 4 µM solution of a supplied phosphopeptide. The action of the development reagent was assessed using protease controls (standard wells with and without development solution added in step two).
The [coumarin emission/fluorescein emission] ratio was used together with the min. and max. signals at the two wavelengths to yield percentage phosphorylation, from which inhibition was derived (according to manufacturer's instructions). Calculated inhibition values were then fitted to 11-point variable slope sigmoidal dose-response curves using GraphPad Prism software, yielding the compound IC50s.

[2] = tested on: histone H3 phosphorylation on Ser 10; experiment: Western Blot analysis of histone H3 phosphorylation in mitotic cells; assay type: cell-based, human; conditions: mitotic HeLa cells synchronized with nocodazole, treated 20 h, any of the concentrations tested
Procedure: For Western Blot analysis of HH3 phosphorylation levels in mitosis HeLa cells were arrested with 2 mM thymidine for 18 h, released into fresh medium for 6 h, and blocked with 2 µM nocodazole for 16 h. DMSO or the different compounds were added 1 h after thymidine release. Mitotic cells were shaken off and lysed in 50 mM Tris pH 6,8- 2% SDS. Samples were sonicated and boiled. 30 µg protein extract (as determined by Bradford assay, Bio-Rad protein assay) was loaded on SDS-PAGE, transferred to a nitrocellulose membrane and blotted with anti-phospho HH3 (Upstate), anti-Aurora A and anti-tubulin antibodies (Sigma, DM1A).

| SMILES | outcome of mitosis [1] | time spent in mitosis (TIM), median [1] [min] | number of cells entering mitosis ([1]; 16 h-24 h) | cells entered mitosis ([1]; time-lapse video microscopy) [%] | IC50 (Aurora A) [nM] | selectivity for Aurora A against other kinases (Aurora A) | HH3-Ser10 phosphorylation [2] | cell death among non dividing cells / cell viability [1] |
| --- | --- | --- | --- | --- | --- | --- | --- | --- |
| CC(C)Nc1nc(-c2ccco2)nc2ccc(C#CCO)cc12 [Compound (C), 3-(2-(Furan-2-yl)-4-(isoiproipylamino)quinazolin-6-yl)prop-2-yn-l-ol] | unable to align their chromosomes and died without entering a new interphase; also recorded: died without returning to interphase or right after an asymmetric segregation | 375 | reduced | 28.8 | 2750 | selective inhibition of Aurora A | no effect |  |
| CC(C)Nc1nc(-c2ccco2)nc2ccc(/C=C/C(C)(C)O)cc12 [Compound (A), (E)-4-(2-(Furan-2-yl)-4-(isopropylamino)quinazolin-6-yl)-2-methylbut-3-en-2-ol] | completed it successfully |  |  |  | 1930 | selective inhibition of Aurora A | no effect | increased cell death rate; also recorded: massive cell death; also recorded: strong effect on cell viability independent of mitosis |
